Columns and labels:
SEM cells [1] = test: cell viability relative to DMSO control; higher = less cytotoxic; settings: 48 h
How it was run: (§1)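 Viability is a per-plate percentage relative to DMSO wells, with cell-free wells as background. CellTiter-Glo One luminescence was read after 48 h at 37°C on 1536-well plates (5 μl) of NOMO1 or SEM (500 cells/well) or P12-Ichikawa (1000 cells/well) leukemia cells. The cells had been adapted for at least four passages in each medium and pin-dosed with library compounds in DMSO from 47 μM to 0.79 nM in 11 threefold steps.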

NOMO1 [2] = test: AUC of viability dose-response curve (% viability x log10 dose units); higher = less sensitive; settings: 48 h
How it was run: (§2)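 In 1536-well plates, leukemia cells adapted to each medium (500 or 1000 cells/well) were exposed for 48 h at 37°C to library compounds in DMSO across 11 threefold doses, 47 μM down to 0.79 nM. Viability was read by CellTiter-Glo One luminescence and normalised per plate to DMSO and cell-free wells. A four-parameter log-logistic fit over log10 doses was integrated by trapezoidal rule. This yielded the area under the curve, with over-full-viability curves scaled and quality-control failures dropped.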

SEM cells [3] = test: as above; settings: 48 h
How it was run: as §2

P12-Ichikawa = test: as above; settings: 48 h
How it was run: as §2

NOMO1 [4] = test: cell viability relative to DMSO control; higher = less cytotoxic; settings: HPLM + 10% dialyzed FBS, 48 h
How it was run: as §1

CC(C)(C(=O)NCC(F)(F)C(F)(F)F)C(=O)N[C@@H]1C(=O)Nc2ccccc2-c2ccccc21
cell viability [%], SEM cells [1]
Settings	HPLM + 10% dialyzed FBS	RPMI 5 mM glucose + 10% FBS
0.000781 µM	99.6	96.8
0.00234 µM	113	127
0.00702 µM	120	120
0.0211 µM	128	133
0.0632 µM	127	122
0.19 µM	119	128
0.569 µM	119	130
1.71 µM	123	108
5.12 µM	126	124
15.4 µM	129	72.7
46.1 µM	3.02	3.52

AUC of viability dose-response curve
Settings	HPLM + 10% dialyzed FBS	RPMI 5 mM glucose + 10% FBS	RPMI 5 mM glucose + 10% dialyzed FBS
NOMO1 [2]	366	337	363
SEM cells [3]	452	435	452

OC(CN1CCC(Cc2ccc(F)cc2)CC1)c1ccc(Cl)cc1 (stereo not given)
cell viability [%], SEM cells [1]
Settings	HPLM + 10% dialyzed FBS	RPMI 5 mM glucose + 10% dialyzed FBS
0.000781 µM	106	116
0.00234 µM	118	125
0.00702 µM	108	115
0.0211 µM	115	129
0.0632 µM	116	126
0.19 µM	118	139
0.569 µM	117	140
1.71 µM	122	136
5.12 µM	124	125
15.4 µM	130	128
46.1 µM	129	136

AUC of viability dose-response curve
Settings	NOMO1 [2]	P12-Ichikawa	SEM cells [3]
HPLM + 10% dialyzed FBS	456	449	440
RPMI 5 mM glucose + 10% FBS	455	451	451
RPMI 5 mM glucose + 10% dialyzed FBS	448	451	461

C[C@@H]1CC[C@H]2[C@@H](C)C(=O)O[C@@H]3O[C@@]4(C)CC[C@@H]1[C@]32OO4
cell viability [%], SEM cells [1]
Settings	RPMI 5 mM glucose + 10% FBS	RPMI 5 mM glucose + 10% dialyzed FBS
0.000781 µM	115	132
0.00234 µM	144	113
0.00702 µM	118	120
0.0211 µM	134	118
0.0632 µM	109	110
0.19 µM	108	100
0.569 µM	115	97.6
1.71 µM	87.6	77.3
5.12 µM	91.7	72.2
15.4 µM	116	112
46.1 µM	114	126

AUC of viability dose-response curve
Settings	NOMO1 [2]	P12-Ichikawa	SEM cells [3]
HPLM + 10% dialyzed FBS	435	440	436
RPMI 5 mM glucose + 10% FBS	419	412	424
RPMI 5 mM glucose + 10% dialyzed FBS	451	416	418

COc1cc(F)c(C(C)C)cc1-c1ccc(C(F)(F)F)cc1CN1C(=O)O[C@H](c2cc(C(F)(F)F)cc(C(F)(F)F)c2)[C@@H]1C
AUC of viability dose-response curve
Settings	NOMO1 [2]	P12-Ichikawa	SEM cells [3]
HPLM + 10% dialyzed FBS	375	438	457
RPMI 5 mM glucose + 10% FBS	438	451	445
RPMI 5 mM glucose + 10% dialyzed FBS	444	459	441

COc1cc2nccc(Oc3ccc(NC(=O)NC4CC4)c(Cl)c3)c2cc1C(N)=O
Settings	AUC of viability dose-response curve	cell viability [%]
NOMO1 [2], HPLM + 10% dialyzed FBS	439	–
NOMO1 [2], RPMI 5 mM glucose + 10% FBS	448	–
NOMO1 [2], RPMI 5 mM glucose + 10% dialyzed FBS	445	–
NOMO1 [4], 0.000781 µM	–	129
NOMO1 [4], 0.00234 µM	–	120
NOMO1 [4], 0.00702 µM	–	111
NOMO1 [4], 0.0211 µM	–	98.7
NOMO1 [4], 0.0632 µM	–	145
NOMO1 [4], 0.19 µM	–	100
NOMO1 [4], 0.569 µM	–	114
NOMO1 [4], 1.71 µM	–	113
NOMO1 [4], 5.12 µM	–	111
NOMO1 [4], 15.4 µM	–	78.1
NOMO1 [4], 46.1 µM	–	17.2
P12-Ichikawa, HPLM + 10% dialyzed FBS	429	–
P12-Ichikawa, RPMI 5 mM glucose + 10% FBS	429	–
P12-Ichikawa, RPMI 5 mM glucose + 10% dialyzed FBS	430	–
SEM cells [3], HPLM + 10% dialyzed FBS	378	–
SEM cells [3], RPMI 5 mM glucose + 10% FBS	378	–
SEM cells [3], RPMI 5 mM glucose + 10% dialyzed FBS	359	–

cell viability [%], SEM cells [1]
Settings	HPLM + 10% dialyzed FBS	RPMI 5 mM glucose + 10% FBS	RPMI 5 mM glucose + 10% dialyzed FBS
0.000781 µM	116	93.5	119
0.00234 µM	117	117	110
0.00702 µM	126	105	122
0.0211 µM	118	98.4	114
0.0632 µM	108	97.1	104
0.19 µM	108	98.8	90.8
0.569 µM	88.7	72.2	81.4
1.71 µM	79.2	80.4	75
5.12 µM	69.1	63.2	59.3
15.4 µM	56.2	44.2	53.7
46.1 µM	51.4	32.1	47.9

CCC(=O)NCC[C@@H]1CCc2ccc3c(c21)CCO3
AUC of viability dose-response curve
Settings	NOMO1 [2]	P12-Ichikawa	SEM cells [3]
HPLM + 10% dialyzed FBS	444	444	430
RPMI 5 mM glucose + 10% FBS	446	455	431
RPMI 5 mM glucose + 10% dialyzed FBS	449	459	435

CC(=O)O[C@H]1C[C@@H]2CC[C@@H]3[C@H](CC[C@@]4(C)[C@H]3C[C@H]([N+]3(C)CCCCC3)[C@@H]4OC(C)=O)[C@@]2(C)C[C@@H]1N1CCCCC1
SEM cells [1], HPLM + 10% dialyzed FBS
Settings	cell viability [%]
0.000781 µM	124
0.00234 µM	124
0.00702 µM	138
0.0211 µM	123
0.0632 µM	146
0.19 µM	144
0.569 µM	120
1.71 µM	137
5.12 µM	132
15.4 µM	125
46.1 µM	110

AUC of viability dose-response curve
Settings	NOMO1 [2]	P12-Ichikawa	SEM cells [3]
HPLM + 10% dialyzed FBS	454	464	470
RPMI 5 mM glucose + 10% FBS	438	466	465
RPMI 5 mM glucose + 10% dialyzed FBS	467	469	466

C[C@@H]1[C@H](O)[C@@H](C)C=CC=CCCC=CC=CC=CC=C[C@H](O[C@H]2O[C@@H](C)[C@H](O)[C@@H](N)[C@H]2O)CC2O[C@](O)(C[C@@H](O)[C@H](O)CC[C@@H](O)C[C@@H](O)C[C@@H](O)CC(=O)O[C@H]1C)C[C@H](O)[C@H]2C(=O)O
AUC of viability dose-response curve
Settings	NOMO1 [2]	P12-Ichikawa	SEM cells [3]
HPLM + 10% dialyzed FBS	458	459	451
RPMI 5 mM glucose + 10% FBS	432	429	448
RPMI 5 mM glucose + 10% dialyzed FBS	432	456	447
